Data: patent US10828301B2, “2,4-pyrimidinediamine compounds and their uses” (Rigel Pharmaceuticals, Inc, priority 2002, dated 2020)
Where a name gives a salt, the structure may show the parent alone.

Legend:
[1] = test system: cultured human mast cells (CHMC); experiment: CHMC low cell density IgE activation: tryptase and LTC4 assays; type: cell-based; details: read-out: CHMC anti-IgE Tryptase
Summary of the method: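 Cultured human mast cells at low density (1000-1500 per well) rested 1 h at 37° C, then stimulated with anti-IgE for 30 min at 37° C. Supernatant tryptase measured with fluorogenic substrate (30 min, room temperature); LTC4 quantified by ELISA on diluted supernatant.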

[2] = test system: cultured human mast cells (CHMC); experiment: CHMC low cell density ionomycin activation: tryptase assay; type: cell-based; details: read-out: CHMC Ionomycin Tryptase
[3] = Homo sapiens, Mast cell, Low Density CHMC, anti-IgE activation, tryptase readout
[4] = Homo sapiens, Mast cell, Low Density CHMC, ionomycin activation, tryptase readout

| Compound | IC50 [1, 3] | IC50 [2, 4] | also measured |
| --- | --- | --- | --- |
| Oc1cccc(Nc2ncc(F)c(NCc3cccnc3)n2)c1 [Compound R945147, 5-Fluoro-N2-(3-hydroxyphenyl)-N4-(3-pyridylmethyl)-2,4-pyrimidinediamine] | 3.55 µM | > 10 µM | – |
| OCc1cccc(Nc2ncc(F)c(Nc3cccc(CO)c3)n2)c1 [Compound R925757, N2,N4-Bis(3-(hydroxymethyl)phenyl)-5-fluoro-2,4-pyrimidinediamine] | 2.8 µM | > 10 µM | – |
| CC(C)(C)C(=O)Nc1cccc(Nc2ncc(F)c(Nc3cccc(O)c3)n2)c1 [Compound R940275, N2-(3-tert-Butylcarbonylaminophenyl)-N4-(3-hydroxyphenyl)-5-fluoro-2,4-pyrimidinediamine] | 0.862 µM | > 10 µM | – |
| c1ccc(-c2cc(Nc3ccc4c(c3)OCCO4)nc(Nc3ccc4c(c3)OCCO4)n2)cc1 [Compound R925811, N2,N4-Bis(3,4-ethylenedioxyphenyl)-6-phenyl-2,4-pyrimidinediamine] | 3.3 µM | > 10 µM | – |
| Fc1cnc(Nc2ccc3[nH]ccc3c2)nc1Nc1ccc2c(c1)OCCO2 [Compound R926748, N4-(3,4-Ethylenedioxyphenyl)-5-fluoro-N2-[(1H)-indol-5-yl]-2,4-pyrimidinediamine] | 0.345 µM | > 10 µM | – |
| CC(C)NC(=O)Oc1cccc(Nc2ncc(F)c(Nc3cccc(OC(=O)NC(C)C)c3)n2)c1 [Compound R926412, N2,N4-Bis(3-isopropylaminocarbonyloxyphenyl)-5-fluoro-2,4-pyrimidinediamine] | – | – | IC50 ([1]; Homo sapiens, Mast cell): 0.62 µM; IC50 ([2]; Homo sapiens, Mast cell): > 10 µM |
| Oc1cccc(Nc2nc(Nc3ccc4cc[nH]c4c3)ncc2F)c1 [Compound R926751, 5-Fluoro-N4-(3-hydroxyphenyl)-N2-[(1H)-indol-6-yl]-2,4-pyrimidinediamine] | 0.598 µM | > 10 µM | – |
| O=C(O)c1cc(Nc2ncc(F)c(Nc3ccc(O)c(C(=O)O)c3)n2)ccc1O [Compound R945041, N2,N4-Bis(3-carboxy-4-hydroxyphenyl)-5-fluoro-2,4-pyrimidinediamine] | > 10 µM | > 10 µM | – |
| CCOC(=O)c1cc2cc(Nc3ncc(F)c(Nc4ccc5c(c4)OCCO5)n3)ccc2[nH]1 [Compound R926476, N2-(2-Ethoxycarbonylindol-5-yl)-N4-(3,4-ethylenedioxyphenyl)-5-fluoro-2,4-pyrimidinediamine] | 0.6 µM | 7.7 µM | – |
| Oc1cccc(Nc2nc(Nc3cccc(-c4cc[nH]n4)c3)ncc2F)c1 [Compound R926841, 5-Fluoro-N4-(3-hydroxyphenyl)-N2-[3-(1H-pyrazol-3-yl)phenyl]-2,4-pyrimidinediamine] | 0.551 µM | > 10 µM | – |
| Cc1c(O)cccc1Nc1ncc(F)c(Nc2cccc(O)c2C)n1 [Compound R945038, N2,N4-Bis(3-hydroxy-2-methylphenyl)-5-fluoro-2,4-pyrimidinediamine] | > 10 µM | > 10 µM | – |
| COc1ccc(OCCNNc2ncc(F)c(Nc3cccc(O)c3)n2)cc1 [Compound R950211, 5-Fluoro-N4-(3-hydroxyphenyl)-N2-(4-methoxyphenyloxyethyleneamino)-2,4-pyrimidinediamine] | 10 µM | > 10 µM | – |
| CCOC(=O)c1cc2cccc(Nc3ncc(F)c(Nc4cc(OC)cc(OC)c4)n3)c2[nH]1 [Compound R926803, N4-(3,5-Dimethoxyphenyl)-N2-(2-ethoxycarbonylindol-7-yl)-5-fluoro-2,4-pyrimidinediamine] | 1.54 µM | > 10 µM | – |
| CNC(=O)COc1cccc(Nc2ncc(F)c(Nc3ccc4c(c3)C=CCC4)n2)c1 [Compound R926944, 5-Fluoro-N4-(3,4-dihydronaphthalen-7-yl)-N2-[3-[(N-methylamino)carbonylmethyleneoxy]phenyl]-2,4-pyrimidinediamine] | – | – | IC50 ([1]; Low Density CHMC, anti-IgE activation, tryptase readout): 0.225 µM; IC50 ([2]; Low Density CHMC, ionomycin activation, tryptase readout): 99 µM |
| COC(=O)c1cccc(Nc2ncc(F)c(Nc3cccc(C(=O)OC)c3)n2)c1 [Compound R945035, N2,N4-Bis(3-methoxycarbonylphenyl)-5-fluoro-2,4-pyrimidinediamine] | > 10 µM | > 10 µM | – |
| O=[N+]([O-])c1cc(Nc2ccnc(Nc3ccc(Cl)c([N+](=O)[O-])c3)n2)ccc1Cl [Compound R950154, N2,N4-Bis(4-chloro-3-nitrophenyl)-2,4-pyrimidinediamine] | – | – | IC50 ([1]; Homo sapiens, Mast cell): 2.08 µM; IC50 ([2]; Homo sapiens, Mast cell): > 10 µM |
| Cc1cc(Nc2ncc(F)c(Nc3ccc4c(c3)OCCO4)n2)cc(C(F)(F)F)c1 [Compound R926895, N4-(3,4-Ethylenedioxyphenyl)-5-fluoro-N2-(3-methyl-5-trifluoromethylphenyl)-2,4-pyrimidinediamine] | 0.339 µM | > 10 µM | – |
| OCCN(CCO)c1cccc(Nc2ncc(F)c(Nc3ccc4c(c3)OCCO4)n2)c1 [Compound R950209, N2-[3-Bis(hydroxyethyl)aminophenyl]-N4-(3,4-ethylenedioxyphenyl)-5-fluoro-2,4-pyrimidinediamine] | 0.748 µM | > 10 µM | – |

| Compound | IC50 [1, 3] | IC50 [2, 4] | also measured |
| --- | --- | --- | --- |
| CC(Nc1nc(Nc2cccc(O)c2)ncc1F)c1ccc(F)cc1 (racemic) [Compound R935021, (±)-5-Fluoro-N4-[1-(4-fluorophenyl)ethyl]-N2-(3-hydroxyphenyl)-2,4-pyrimidinediamine] | > 10 µM | > 10 µM | – |
| Fc1cnc(Nc2ccc3c(c2)OCCO3)nc1Nn1cccc1 [Compound R935277, N2-(3,4-Ethylenedioxyphenyl)-5-Fluoro-N4-(1H-pyrrol-1-yl)-2,4-pyrimidinediamine] | 22.9 µM | 8.9 µM | – |
| COc1ccc(Nc2nc(Nc3cccc(O)c3)ncc2F)cc1Cl [Compound R926945, N4-(3-Chloro-4-methoxyphenyl)-5-fluoro-N2-(3-hydroxyphenyl)-2,4-pyrimidinediamine] | 0.457 µM | > 10 µM | – |
| COc1ccc(C)c(Nc2ncc(F)c(Nc3ccc4c(c3)OCCO4)n2)c1 [Compound R926896, N4-(3,4-Ethylenedioxyphenyl)-5-fluoro-N2-(5-methoxy-2-methylphenyl)-2,4-pyrimidinediamine] | 1.62 µM | > 10 µM | – |
| Oc1ccc(Nc2ncc(F)c(Nc3ccc(O)c(C(F)(F)F)c3)n2)cc1C(F)(F)F [Compound R950093, N2,N4-Bis(4-hydroxy-3-trifluoromethylphenyl)-5-fluoro-2,4-pyrimidinediamine] | 0.64 µM | 5.55 µM | – |
| CCOC(=O)c1cnc(Nc2ccc3c(c2)OCCO3)nc1NOCc1ccccc1 [Compound R925837, N4-Benzyloxy-5-ethoxycarbonyl-N2-(3,4-ethylenedioxyphenyl)-2,4-pyrimidinediamine] | > 10 µM | > 10 µM | – |
| N#Cc1ccc(Nc2ncc(F)c(Nc3ccc(C#N)cc3)n2)cc1 [Compound R945057, N2,N4-Bis(4-cyanophenyl)-5-fluoro-2,4-pyrimidinediamine] | 10 µM | > 10 µM | – |
| COC(=O)c1cc2cc(Nc3nc(Nc4ccc5c(c4)OCCO5)ncc3F)ccc2o1 [Compound R926485, N2-(3,4-Ethylenedioxyphenyl)-N4-(2-methoxycarbonylbenzofuran-5-yl)-5-fluoro-2,4-pyrimidinediamine] | 4.01 µM | > 10 µM | – |
| CCOC(=O)c1cccc(Nc2ncc(F)c(Nc3ccc4c(c3)OCCO4)n2)c1 [Compound R925745, N2-(3-Ethoxycarbonylphenyl)-N4-(3,4-ethylenedioxyphenyl)-5-fluoro-2,4-pyrimidinediamine] | 1.77 µM | > 10 µM | – |
| COC(=O)c1cc(Nc2ncc(F)c(Nc3ccc(O)c(C(=O)OC)c3)n2)ccc1O [Compound R945043, N2,N4-Bis(4-hydroxy-3-methoxycarbonylphenyl)-5-fluoro-2,4-pyrimidinediamine] | > 10 µM | > 10 µM | – |
| CN(C)CCOc1cccc(Nc2ncc(F)c(Nc3ccc4c(c3)OCCO4)n2)c1 [Compound R926771, N2-[3-[2-(N, N-Dimethylamino)ethyloxy]phenyl]-N4-(3,4-Ethylenedioxyphenyl)-5-fluoro-2,4-pyrimidinediamine Hydrogen Chloride Salt] | 2.05 µM | > 10 µM | – |
| Nc1cccc(Nc2nc(Nc3cccc(O)c3)ncc2F)c1 [Compound R950163, N4-(3-Aminophenyl)-5-fluoro-N2-(3-hydroxyphenyl)-2,4-pyrimidinediamine] | 0.874 µM | > 10 µM | – |
| COc1cc(Nc2ncc(F)c(Nc3cccc(O)c3)n2)c(OC)cc1Cl [Compound R926857, N2-(4-Chloro-2,5-dimethoxyphenyl)-5-fluoro-N4-(3-hydroxyphenyl)-2,4-pyrimidinediamine] | 1.21 µM | > 10 µM | – |
| CC(C)(CO)c1ccc(Nc2nc(Nc3ccc(OCCO)cc3)ncc2F)cc1 [Compound R935158, 5-Fluoro-N4-[4-(2-hydroxy-1,1-dimethylethyl)phenyl]-N2-[4-(2-hydroxyethoxy)phenyl]-2,4-pyrimidinediamine] | 0.551 µM | > 10 µM | – |
| OCC(O)COc1ccc(Nc2ncc(F)c(Nc3cccc(O)c3)n2)cc1 (stereo not shown) [Compound R935180, N2-[4-(2,3-Dihydroxypropoxy)phenyl]-5-fluoro-N4-(3-hydroxyphenyl)-2,4-pyrimidinediamine] | 1.22 µM | > 10 µM | – |
| CC(C)Oc1ccc(Nc2nc(Nc3ccc(C(C)(C)CO)cc3)ncc2F)cc1 [Compound R935151, 5-Fluoro-N2-[4-(2-hydroxy-1,1-dimethylethyl)phenyl]-N4-(4-isopropoxyphenyl)-2,4-pyrimidinediamine] | 0.479 µM | > 10 µM | – |
| CNC(=O)c1cc2cc(Nc3ncc(F)c(Nc4cccc(C(C)(C)C)c4)n3)ccc2o1 [Compound R940291, N4-(3-tert-Butylphenyl)-5-fluoro-N2-[2-(N-methylamino)carbonylbenzofur-5-yl]-2,4-pyrimidinediamine] | 0.396 µM | > 10 µM | – |
